# Experiments:
# [1] = Particle size of lipid nanoparticle (dynamic light scattering, Malvern Zetasizer); format: physicochemical
# In short: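 Sizes are average diameters of fully formed nanoparticles measured by dynamic light scattering. Samples were diluted in PBS to a count rate of about 200–400 kcts. Values are intensity-weighted Z-average sizes.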
# [2] = Polydispersity index (PDI) of lipid nanoparticle (dynamic light scattering); format: physicochemical
# Method: Unless indicated otherwise, all PDIs referred to herein are the PDI of the fully formed nanoparticle, as measured by dynamic light scattering on a Malvern Zetasizer. The nanoparticle sample was diluted in phosphate buffered saline (PBS) so that the count rate was approximately 200-400 kcts. The data is presented in Tables 4 and 5 as a weighted average of the intensity measure.
# [3] = pKa measurement of cationic lipid (TNS fluorescence); format: physicochemical; settings: pKa of the cationic lipid of formula (I); Table 4; listed as Ex. 38
# In short: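 Lipid (2 mM ethanol stock) mixed with TNS probe (0.3 mM stock) and diluted into twelve sodium phosphate/citric acid buffers of varying pH. TNS fluorescence read after background subtraction and normalized to the lowest-pH value. pKa taken as the pH at half-maximal normalized fluorescence on the smoothed curve, precise to about 0.1 units.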
# human leptin = assay: Mouse subcutaneous injection of modified synthetic leptin mRNA, human leptin ELISA; format: in vivo; settings: human leptin in mouse plasma, 10 μg leptin mRNA
# Method: Prior to subcutaneous injection, mouse body weights were recorded and diet weighted, with mice grouped according to their body weights. The mice were manually restrained and placed on a work surface. Their scruffs were pinched and lifted away from the underlying muscle, the space into which was inserted a 25 gauge needle connected with a 1 ml syringe. The syringe plunger was pulled backwards in such a way as to ensure no fluid was drawn into the syringe, and then the desired volume of leptin mRNA was hand injected with moderate pressure and speed. The needle was then withdrawn and the mice returned to their cages.
# 8-9 week old, male C57BL/6 mice were used for the in vivo study. FPLC purified modified synthetic leptin mRNA (SEQ ID NO: 5) in which the uridines were substituted with pseudouridine (N:P molar ratio=8:1) packaged in multiple cationic lipid were diluted in injectable saline at a dose of 10 μg per average group body weight.
# On day 0, animals were weighed and sorted according to average body weight. ice were dosed at 9 AM and blood was taken at 9 AM on day 0. Blood was also taken at 9 AM on each of days 1 and 2 and assessed for leptin protein levels. Body weight and food intake were also recorded.
# Human leptin in mouse plasma was measured by ELISA. Antibodies purchased from the R&D Systems duoset (Cat# DY398E, part#840279 for capture antibody and part#840280 for detection antibody) were reconstituted using PBS and titered, again using PBS. The capture antibody was coated at 4 ug/ml in 30 ul/well on a white Nunc® Maxisorp 384 well plate (Cat#460372). After an overnight incubation at room temperature the capture antibody was aspirated and the plate blocked for 2 hours at room temperature with 90 ul/well of KPL milk blocker (Cat#50-82-00). Once the incubation was completed the plate was aspirated and recombinant standards and samples were added to the plate at 30 ul/well for 2 hours at 37° C. while shaking at 600 rpm. Sample/standard dilutions were made using casein sample diluent. Washing/aspiration 3 times with 100 ul/well followed, using Teknova plate wash solution (Cat# P1192). Next, detection antibody was diluted using casein detection antibody diluent to 12.5 ng/ml and added at 30 ul/well for 2 hours room temperature. After this incubation, the plate was washed again and a solution of poly-streptavidin-HRP (Cat#21140) at a 1:1250 dilution in HRP dilution buffer was added to each well (30 ul/well) and incubated for 30 minutes room temperature. A final wash/aspiration removed the HRP solution and a chemiluminescent substrate was added at 30 ul/well (Cat#1859678 & 1859679). The plate was quickly read using a SpectramaxM5 plate reader with a 50 ms integration time. The dynamic range of the ELISA is from 100-2,000 pg/ml (6.25-125 pM) of human leptin. The assay is applicable to plasma from mice, rats and cynomolgus monkeys.
# [4] = PLK1-424 siRNA LNP, Chol/DSPC/S010 45/44/9/2
# [5] = leptin mRNA lipid nanoparticles
"Size (nm) ([1]; FVII siRNA LNP, Chol/DSPC/PEG-DMG, molar ratio 45/44/9/2, Z-average)","Size (nm) ([1]; FVII siRNA LNP, Chol/DSPC/S010, molar ratio 45/44/9/2, Z-average)","Size (nm) [1, 4] [nm]","Size (nm) [1, 5] [nm]","PDI ([2]; FVII siRNA LNP, Chol/DSPC/PEG-DMG, molar ratio 45/44/9/2)","PDI ([2]; FVII siRNA LNP, Chol/DSPC/S010, molar ratio 45/44/9/2)","PDI [2, 4]","PDI [2, 5]",pKa [3],Compound,"Leptin expression SC-C57BI/6, 24 h (human leptin) [ng/mL]"
108.4,123.8,116.3,127.8,0.03,0.059,0.038,0.102,,"CCCCCCCCCCOC(=O)CCCCCCCOc1cc(CN(C)C)cc(OCCCCCCCC(=O)OCCCCCCCCCC)c1 [Example 57, didecyl 8,8′-((5-((dimethylamino)methyl)-1,3-phenylene)bis(oxy))dioctanoate]",
,,,,,,,,5.9,"CCCCC/C=C\C/C=C\CCCCCCCC(=O)OCCCCOc1cc(CN(C)C)cc(OCCCCOC(=O)CCCCCCC/C=C\C/C=C\CCCCC)c1 [Example 38, (9Z,9′Z,12Z,12′Z)-((5-((dimethylamino)methyl)-1,3-phenylene)bis(oxy))bis(butane-4,1-diyl)bis(octadeca-9,12-dienoate)]",0.99

# From patent publication US10124065B2, “Lipids and lipid compositions for the delivery of active agents” (Novartis AG, priority 2013, dated 2018)
